This experiment deals with T1, Na^+ /H^+ exchanger of rabbit erythrocytes (Oryctolagus cuniculus, UniProt P23791).
T1 construct: endogenous in cells; host or cells: erythrocytes in whole blood of cholesterol-fed White New Zealand rabbits (Ivanovas)
In words: Inhibition of the Na+/H+ exchanger of rabbit erythrocytes (amiloride-sensitive sodium influx, flame photometry). Type of experiment: cell-based, rabbit (White New Zealand). The following applies: hyperosmolar salt/sucrose medium, pH 7.4, 37° C. From the text: Inhibition of the Na^+ /H^+ exchanger of rabbit erythrocytes White New Zealand rabbits (Ivanovas) received a standard diet containing 2% cholesterol for six weeks in order to activate Na^+ /H^+ exchange and thus to make it possible to determine the Na^+ influx into the erythrocytes via Na^+ /H^+ exchange by flame photometry. The blood was taken from the arteries of the ear and anticoagulated with 25 IU of potassium heparin. Part of each sample was used for duplicate determination of the hematocrit by centrifugation. Aliquots each of 100 μl were used to measure the Na^+ content of the erythrocytes.
In order to determine the amiloride-sensitive sodium influx, 100 μl of each blood sample were incubated in each case in 5 ml of a hyperosmolar salt/sucrose medium (mmol/l: 140 NaCl, 3 KCl, 150 sucrose, 0.1 ouabain, 20 trishydroxymethylaminomethane) at pH 7.4 and 37° C. The erythrocytes were then washed three times with ice-cold MgCl2 /ouabain solution (mmol/l: 112 MgCl2, 0.1 ouabain) and hemolyzed in 2.0 ml of distilled water. The intracellular sodium content was determined by flame photometry.
The net Na^+ influx was calculated from the difference between the initial sodium levels and the sodium content of the erythrocytes after incubation. […]

Counter-ions that a name gives are not always drawn.

IC50 data for two compounds are collected here from patent US5856344A, “Sulfonylamino-substituted benzoylguanidines, a process for their preparation, their use as a medicament or diagnostic aid, and medicament containing them” (Hoechst Aktiengesellschaft, priority 1995, dated 1999).

T1 sequence (P23791 whole entry): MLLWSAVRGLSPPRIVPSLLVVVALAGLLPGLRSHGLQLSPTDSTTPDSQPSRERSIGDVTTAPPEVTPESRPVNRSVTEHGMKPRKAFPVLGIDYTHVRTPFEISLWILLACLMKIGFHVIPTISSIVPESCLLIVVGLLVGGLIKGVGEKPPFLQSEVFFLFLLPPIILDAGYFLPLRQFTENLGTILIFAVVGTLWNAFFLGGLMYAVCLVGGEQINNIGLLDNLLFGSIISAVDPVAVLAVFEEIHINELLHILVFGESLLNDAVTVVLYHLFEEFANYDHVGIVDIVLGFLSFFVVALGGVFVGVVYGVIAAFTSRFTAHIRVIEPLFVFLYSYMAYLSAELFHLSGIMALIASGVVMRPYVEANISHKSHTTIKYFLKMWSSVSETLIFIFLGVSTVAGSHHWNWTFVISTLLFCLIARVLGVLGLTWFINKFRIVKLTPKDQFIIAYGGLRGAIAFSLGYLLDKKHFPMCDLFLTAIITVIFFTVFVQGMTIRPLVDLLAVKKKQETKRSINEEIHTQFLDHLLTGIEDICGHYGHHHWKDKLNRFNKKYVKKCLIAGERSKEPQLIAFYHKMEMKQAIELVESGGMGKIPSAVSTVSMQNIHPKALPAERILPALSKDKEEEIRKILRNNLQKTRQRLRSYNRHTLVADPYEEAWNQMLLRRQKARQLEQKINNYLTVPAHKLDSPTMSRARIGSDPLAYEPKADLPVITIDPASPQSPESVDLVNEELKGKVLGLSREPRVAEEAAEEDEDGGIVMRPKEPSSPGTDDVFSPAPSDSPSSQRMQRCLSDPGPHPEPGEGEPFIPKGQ

Turning to `CC(C)c1ccc(C(=O)N=C(N)N)cc1NS(C)(=O)=O` [Example 1, 4-Isopropyl-3-methylsulfonylaminobenzoylguanidine, hydrochloride], the half-inhibitory concentration (IC50) is 300 nM.

In the case of `CS(=O)(=O)Nc1cc(C(=O)N=C(N)N)ccc1Oc1cccnc1` [Example 2, 3-Methylsulfonylamino-4--(3-pyridyloxy)benzoylguanidine], the half-inhibitory concentration (IC50) is 740 nM.
